From paper PMC6716272, “In Vivo and In Vitro Analyses of Novel Peptidomimetic Disruptors for the Serotonin 5-HT2C Receptor Interaction With Phosphatase and Tensin Homolog” (Frontiers in Pharmacology, 2019)

Experiments:
[1] = test system: WAY163909–saline-trained rats; test: Two-lever drug discrimination, WAY163909 (0.75 mg/kg) vs saline; assay type: in vivo, rat
Description: (§1) Experimentally naïve male Sprague-Dawley rats (n = 43; Envigo, Inc.) weighing 300–325 g at the beginning of the experiment were housed two per cage in a temperature- (21–23°C) and humidity- (45–50%) controlled environment; lighting was maintained under a 12-h light–dark cycle (0700–1900 h). Rats were maintained at 80–90% of their free-feeding weights by restricting access to water. Rats received water during daily training sessions (5–6 ml/rat/session), in the afternoon several hours after training (20 min), and over the weekend (36 h). Experiments were conducted during the light phase of the light–dark cycle (between 0900 and 1200 h) and were carried out in accordance with the National Institutes of Health Guide for the Care and Use of Laboratory Animals and with the approval of the Institutional Animal Care and Use Committee at University of Texas Medical Branch.
(§2) The procedures were conducted in commercially available two-lever operant chambers (Med Associates, St. Albans, VT). Each chamber was equipped with a water-filled dispenser mounted equidistantly between two retractable response levers on the wall and housed in a light- and soundproof cubicle. Illumination came from a 28-V house light; ventilation and masking noise were provided by a ventilation fan in the right-side wall. A computer with Med-PC IV software was used to run programs and record all experimental events.
(§3) Standard two-lever, water-reinforced drug discrimination procedures were used ([Appel and Cunningham, 1986]; [Callahan and Cunningham, 1995]; [Colpaert, 1999]). Three cohorts (n = 13–16/cohort) were trained to discriminate an injection of a training drug from saline (1.0 ml/kg, i.p.) administered 15 min before start of daily (Monday–Friday) training sessions. In one cohort (n = 14), rats were trained to discriminate the training drug lorcaserin (0.75 mg/kg, 1.0 ml/kg, i.p.) from saline. In a second cohort (n = 13), rats were trained to discriminate the training drug WAY163909 (0.75 mg/kg, 1.0 ml/kg, i.p.) from saline. In the third cohort, rats (n = 16) were trained to discriminate the training drug cocaine (5 mg/kg, 1.0 ml/kg, i.p.) from saline. Two rats in the lorcaserin–saline cohort were excluded from the present study due to failure to maintain the discrimination. Rats in the WAY163909–saline cohort also participated in additional studies ([Wild et al., 2018]); the WAY163909 dose–response curve was reevaluated between studies; a washout period was allowed, and no carryover effects were observed.
(§4) During this phase, only the stimulus-appropriate (drug or saline) lever was present. Training began under a fixed ratio 1 (FR 1) schedule of water reinforcement, and the FR requirement was incremented until all animals were responding reliably under an FR 20 schedule for each experimental condition. For half of the rats, left lever responses were reinforced after training drug administration, whereas right lever responses were reinforced after saline administration; conditions were reversed for the remaining animals. During this phase of training, drug and saline were administered irregularly with the restriction that neither condition prevailed for more than three consecutive sessions.
(§5) After responding stabilized, both levers were presented simultaneously during 15-min training sessions. The rats were required to respond on the stimulus-appropriate (correct) lever to obtain water reinforcement. There were no programmed consequences for responding on the incorrect lever. This phase of training continued until the performance of all rats attained criterion (defined as mean accuracies of at least 80% stimulus-appropriate responding for 10 consecutive sessions).
(§6) Test sessions were initiated and conducted once or twice per week following attainment of criterion. Training sessions were run during the intervening days to maintain discrimination accuracy. […]

[2] = effect mimicked by Ro-600175 and reversed by SB242084; ref Ji et al., 2006; cited from earlier work
Source text: (§7) Agonist binding to the 5-HT2CR results in dynamic changes in receptor conformation and induction of a variety of intracellular signaling pathways ([Berg et al., 1994]; [McGrew et al., 2002]; [Werry et al., 2005]; [Labasque et al., 2008]). Best characterized is coupling of the 5-HT2CR to Gαq/11 proteins to activate phospholipase Cβ (PLCβ), resulting in increased intracellular calcium (Cai ^2+) release, among various other signaling outcomes ([Millan et al., 2008]). One approach to selectively target the 5-HT2CR signaling is through protein–protein interactions that are selective for 5-HT2CR ove ...

rats = conditions: TAT-r3L4F 0.1 µmol/kg; ref Cunningham et al., 2011; Anastasio et al., 2013; cited from earlier work
Source text: as §7

[3] = test system: cocaine–saline-trained rats; test: Two-lever drug discrimination, cocaine (5 mg/kg) vs saline; assay type: in vivo, rat
Description: as §1, §2, §3, §4, §5, §6

[4] = test system: lorcaserin–saline-trained rats; test: Two-lever drug discrimination, lorcaserin (0.75 mg/kg) vs saline; assay type: in vivo, rat
Description: as §1, §2, §3, §4, §5, §6

Ac-YGRKKRRPNPDQKPRRKKKEKR-NH2 [TAT-r3L4F, rat 5-HT2CR third-loop peptide r3L4F conjugated to TAT at the N terminus]
response rate in combination with WAY163909 (0.5 mg/kg) ([1]; combination test, TAT-r3L4F 1, 2 µmol/kg i.p.): no change in response rates | drug-lever responding in combination with WAY163909 (0.5 mg/kg) ([1]; combination test, TAT-r3L4F 1, 2 µmol/kg i.p., p < 0.05): enhanced drug-lever responding | response rate in substitution test ([1]; lorcaserin 1 mg/kg (vs saline), TAT-r3L4F 1, 2 µmol/kg (vs previous WAY163909 maintenance session)): significantly higher | drug-like responding ([1]; substitution test, TAT-r3L4F 1, 2 µmol/kg i.p.): < 10% | ∆9-tetrahydrocannabinol-induced conditioned place preference [2]: blocks | efficacy of a subeffective dose of WAY163909 to suppress motor activity and impulsive action (rats): enhances the efficacy | motor activity, peptide alone (rats): does not suppress motor activity on its own | stimulus effects of cocaine (2.5 mg/kg) and response rate, TAT-r3L4F in the absence of lorcaserin ([3]; TAT-r3L4F 1, 2 µmol/kg i.p. 45 min before test): did not alter the stimulus effects of cocaine or the associated response rate | cocaine-appropriate responding, TAT-r3L4F plus lorcaserin (0.5 mg/kg) before cocaine (2.5 mg/kg) ([3]; TAT-r3L4F 1, 2 µmol/kg, p < 0.05 vs cocaine alone, not statistically different from lorcaserin alone plus cocaine): significantly reduced cocaine-appropriate responding | lever responding in substitution test (low-dose series) ([3]; TAT-r3L4F alone 1, 2 µmol/kg, lorcaserin alone 0.5 mg/kg, data not shown): saline-appropriate responding | response rates associated with cocaine (2.5 mg/kg) ([3]; lorcaserin alone 0.5 mg/kg, or TAT-r3L4F 1, 2 µmol/kg plus lorcaserin 0.5 mg/kg, p < 0.05): significantly suppressed the response rates | response rate in substitution test (low-dose series) ([3]; vs previous cocaine maintenance session, TAT-r3L4F alone 1, 2 µmol/kg, lorcaserin alone 0.5 mg/kg, data not shown): significant reduction in response rates | drug-lever responding in combination with lorcaserin (0.5 mg/kg) ([4]; combination test, i.p., TAT-r3L4F 2 µmol/kg (p < 0.05), peptide 7 2, 5 µmol/kg): enhanced drug-lever responding | response rate in combination with lorcaserin (0.5 mg/kg) ([4]; combination test, i.p., TAT-r3L4F 2 µmol/kg, peptide 7 2, 5 µmol/kg): no change in response rates | drug-like responding ([4]; substitution test, i.p., TAT-r3L4F 1, 2 µmol/kg, peptide 7 1, 2, 5 µmol/kg (data not shown)): < 10% | response rate in substitution test ([4]; vs previous lorcaserin maintenance session, WAY163909 0.75 mg/kg, TAT-r3L4F 2 µmol/kg (trend for 1 µmol/kg)): significantly higher
